Ki data for 4 molecules are collected here from patent US7223780B2, “Triazole-derivatives as blood clotting enzyme factor Xa inhibitors” (Sanofi-Aventis Deutschland GmbH, priority 2003, dated 2007).

In the experiment the target is T1, human factor Xa (Homo sapiens, UniProt P00742).
T1 construct: 25 μl human factor Xa (Enzyme Research Laboratories, Inc; South Bend, Ind.); purchased Enzyme Research Laboratories, Inc; South Bend, Ind
T1 sequence (P00742 235-488 limits assumed): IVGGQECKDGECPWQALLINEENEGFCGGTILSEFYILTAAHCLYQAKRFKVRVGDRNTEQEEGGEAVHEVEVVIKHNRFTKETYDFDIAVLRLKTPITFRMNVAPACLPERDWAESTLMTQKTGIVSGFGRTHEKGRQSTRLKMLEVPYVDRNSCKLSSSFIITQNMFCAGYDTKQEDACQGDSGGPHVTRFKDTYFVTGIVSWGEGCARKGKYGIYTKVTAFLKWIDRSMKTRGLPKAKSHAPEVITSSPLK
T1 sequence (P00742 41-179 partner limits assumed): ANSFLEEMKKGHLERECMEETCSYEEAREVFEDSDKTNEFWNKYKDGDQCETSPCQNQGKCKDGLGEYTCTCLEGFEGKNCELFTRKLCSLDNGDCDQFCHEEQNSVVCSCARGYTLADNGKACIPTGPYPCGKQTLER
Kind of experiment: Factor Xa chromogenic assay (substrate S-2765). Type of experiment: biochemical. The following applies: inhibition constant for factor Xa, calculated from IC50 by Ki=IC50/{1+(substrate concentration/Km)}; 0.5 nM enzyme, 140 μM S-2765, 25° C.; read-out: Ki(FXa). On the procedure:
The ability of the compounds of the formula I or II to inhibit factor Xa or factor VIIa or other enzymes like thrombin, plasmin, or trypsin can be assessed by determining the concentration of the compound of the formula I or II that inhibits enzyme activity by 50%, i.e. the IC50 value, which was related to the inhibition constant Ki. Purified enzymes were used in chromogenic assays. The concentration of inhibitor that causes a 50% decrease in the rate of substrate hydrolysis was determined by linear regression after plotting the relative rates of hydrolysis (compared to the uninhibited control) versus the log of the concentration of the compound of formulae I, II, Ia, Ib, Ic, Id, IIa, IIb or IId. For calculating the inhibition constant Ki, the IC50 value was corrected for competition with substrate using the formula Ki=IC50/{1+(substrate concentration/Km)} wherein Km is the Michaelis-Menten constant (Chen and Prusoff, Biochem. Pharmacol. 22 (1973) 3099–3108; I. H. Segal, Enzyme Kinetics, 1975, John Wiley & Sons, New York, 100–125; which were incorporated herein by reference). a) Factor Xa Assay
In the assay for determining the inhibition of factor Xa activity TBS-PEG buffer (50 mM Tris-HCl, pH 7.8, 200 mM NaCl, 0.05% (w/v) PEG-8000, 0.02% (w/v) NaN3) was used. The IC50 was determined by combining in appropriate wells of a Costar half-area microtiter plate 25 μl human factor Xa (Enzyme Research Laboratories, Inc.; South Bend, Ind.) in TBS-PEG; 40 μl 10% (v/v) DMSO in TBS-PEG (uninhibited control) or various concentrations of the compound to be tested diluted in 10% (v/v) DMSO in TBS-PEG; and substrate S-2765 (N((α)-benzyloxycarbonyl-D-Arg-Gly-L-Arg-p-nitroanilide; Kabi Pharmacia, Inc.; Franklin, Ohio) in TBS-PEG.
The assay was performed by pre-incubating the compound of formula I or II plus enzyme for 10 min. Then the assay was initiated by adding substrate to obtain a final volume of 100 μl. The initial velocity of chromogenic substrate hydrolysis was measured by the change in absorbance at 405 nm using a Bio-tek Instruments kinetic plate reader (Ceres UV900HDi) at 25° C. during the linear portion of the time course (usually 1.5 min after addition of substrate). The enzyme concentration was 0.5 nM and substrate concentration was 140 μM.
As usually defined, the Ki is a dissociation constant, usually derived from enzyme kinetics or from competition with a known ligand. As to `CC(C)N1CCC(NC(=O)c2nc(-n3cccc3)n(Cc3cc(-c4ccc(Cl)s4)on3)n2)CC1` [Example 1, 1-[5-(5-Chloro-thiophen-2-yl)-isoxazol-3-ylmethyl]-5-pyrrol-1-yl-1H-[1,2,4]triazole-3-carboxylic acid (1-isopropyl-piperidin-4-yl)-amide], the Ki was 0.054 µM.
With `CC(C)N1CCC(NC(=O)c2nnn(Cc3cc(-c4ccc(Cl)s4)on3)n2)CC1` [Example 5, 2-[5-(5-Chloro-thiophen-2-yl)-isoxazol-3-ylmethyl]-2H-tetrazole-5-carboxylic acid (1-isopropyl-piperidin-4-yl)-amide] the figure was 0.33 µM; with `CC(C)N1CCC(NC(=O)c2nc(-c3ccccn3)nn2Cc2cc(-c3ccc(Cl)s3)on2)CC1` [Example 3, 2-[5-(5-Chloro-thiophen-2-yl)-isoxazol-3-ylmethyl]-5-pyridin-2-yl-2H-[1,2,4]triazole-3-carboxylic acid (1-isopropyl-piperidin-4-yl)-amide], 0.1 µM.
With `CC(C)N1CCC(NC(=O)c2nc(-c3ccccn3)n(Cc3cc(-c4ccc(Cl)s4)on3)n2)CC1` [Example 2, 1-[5-(5-Chloro-thiophen-2-yl)-isoxazol-3-ylmethyl]-5-pyridin-2-yl-1H-[1,2,4]triazole-3-carboxylic acid (1-isopropyl-piperidin-4-yl)-amide] the figure was 0.08 µM.
